For this assay, the system named is rat liver AMPK (mixture of α1β1γ1 and α2β1γ1). Description: Rat liver AMPK activation assay. In kind it is biochemical. Conditions: for EC50: 0.2 mM ATP and 0.2 mM AMARA. The protocol:
AMPK phosphotransferase activity was assayed in reactions (50 μl) containing 50 mM HEPES, pH 7.4, 10 mM MgCl2, 0.1 mM EGTA, 1 mM DTT, 0.01% BRIJ-35, 100 μM [γ-^32P]ATP (∼250 CPM⋅pmol^−1) and 200 μM AMARA (AMARAASAAALARRR). Reactions were started by the addition of AMPK (5 mU), incubated for 20 min at 30°C and quenched by spotting onto P81 and immersion in 75 mM H3PO4. Washed filters were dried and [^32P] incorporation determined by Cherenkov counting. AMPK activity in cell extracts was determined by immunoprecipitation with AMPKα1 or AMPKα2 antibodies from 50 μg material, as previously described ([Hunter et al., 2011]). Results are expressed as picomoles Pi incorporated per minute-milligram or the fold increase in activity compared to controls in the absence of the compound and were fitted to the following equation: v=vo+{(vmax−vo)[A]^h/Kah+[A]^h}, where v is the velocity, vo is the velocity in the absence of compound, [A] is the concentration of activator, Ka is the concentration of activator that increases velocity to 50% maximal stimulated activity, and h is the Hill coefficient. […]
Figure S3, related to Figure 2. C2 is a partial agonist of rat liver AMPK and is antagonised by ADP but has no effect on isolated AMPKα subunits. (A) Full-length human AMPKα1 and α2 subunits were prepared in E.coli and activated with CAMKK as described in Methods. Isolated AMPKα subunits were assayed under standard conditions in the presence of C2 (0 - 1000 nM). Results are expressed normalised to maximal activity in the absence of ligand and represent the average ± SD of three independent experiments on a single preparation of kinase. (B) Rat liver purified AMPK (containing α1 and α2 subunits in complex with β1γ1) was assayed for activation by AMP and C2 in the presence of 0.2 mM ATP and 0.2 mM AMARA as described in Methods. Results are expressed as mean Pi incorporated in nmol.min-1.mg-1 ± SD. (C) Rat liver AMPK was assayed under standard conditions in the presence of saturating AMP (30 µM) and increasing concentrations of C2 (0 - 10 µM). (D) Recombinant AMPK α1β1γ1 was assayed under standard conditions in the presence of 1 μM C2 and increasing concentrations of ADP (0 - 200 μM). Results are expressed as fold increase in activity relative to controls in the absence of compound ± SD.
(E) C2 and AMP displace a GST-AMPKγ2 subunit fusion from ATP-γ-Sepharose. A purified C-terminal fragment of AMPKγ2 bearing CBS domains 1-4 was absorbed onto ATP- […]
Sepharose. […]
PAGE and staining with colloidal Coomassie. (F) Recombinant PP2Cα was assayed by monitoring the release of phosphate from 100 μM EFLR(pT)SCGS in the presence of increasing concentrations of C2 (0 – 100 μM). The plant alkaloid, sanguinarine was included as a positive control for inhibition of phosphatase activity. […]

The EC50 is the midpoint of the concentration-response curve. In the case of `Nc1ncnc2c1ncn2[C@@H]1O[C@H](COP(=O)(O)O)[C@@H](O)[C@H]1O` [AMP, reference compound], the EC50 was determined as 3600 ± 200 nM.

For the compound `O=P(O)(O)c1ccc(-c2cc(O)on2)o1` [Compound C2, 5-(5-hydroxyl-isoxazol-3-yl)-furan-2-phosphonic acid], the “extent of activation compared with AMP” value is listed as “only half the extent” and the 50% effective concentration (EC50) was 65 ± 4 nM. In addition, where the note is “C2 0–10 µM”, the “reduction of activity stimulated by 30 μM AMP” value is given as “≈ 50%”.

(Values after publication PMC4104029, “Mechanism of Action of Compound-13: An α1-Selective Small Molecule Activator of AMPK” (Chemistry & Biology, 2014).)
